Values of other authors as cited in patent publication US20220031715A1, “COMPOSITIONS AND METHODS FOR ENHANCING WOUND HEALING” (priority 2018, published 2022).

Tests used:
[1] = test system: NR1I2/PAR, NR1i2/PXR, ESR1, NFE2L2/HEBP1, NR1 L3/CAR, and TSHR; details: at least six receptors

For `O=P(Oc1ccccc1)(Oc1ccccc1)Oc1ccccc1` [TPP, triphenyl phosphate], the “activation of hormone receptors” value [1] is listed as “activates” and the toxicity (mammals) is listed as “very low toxicity”.
